“Also recorded” adds a separate entry of the source.
How the values were obtained:
[1] = target: T1, PTGR2 (Homo sapiens, UniProt Q8N8N7); experiment: gel-based ABPP, HHS-475 probe, HEK293T cells expressing recombinant PTGR2; format: cell-based; conditions: live HEK293T cells, ligand 25 μM or varying, 2 h; HHS-475 100 μM
T1 construct: host or cells: HEK293T
Description: HEK293T cells at 30-50% confluency were transfected with 2.6 μg of FAH or PTGR2 plasmid DNA in a serum-free media/polyethyleneimine solution for 48 hrs. The cells were washed once with warm, sterile DPBS (1×, 5 mL), and then 10 mL of serum-free media (supplemented with 1% L-glutamine) containing either DMSO or SuTEx fragment (in DMSO) was added. After 2 hrs, the cells were treated with 100 μM of SuTEx alkyne probe (HHS-475, 10 μL of 1000× DMSO stock) and incubated for an additional 2 hrs. The media was aspirated and cells washed with cold PBS (5 mL) and harvested. Cells were spun at 500×g for 5 min at 4° C. and supernatant was removed. Pellets were resuspended in 1 mL of cold DPB S and spun at 1,400×g for 3 min at 4° C. and supernatant was removed. The cells were lysed in PBS by sonication and fractionated (100,000×g, 45 min, 4° C.). The soluble fraction was diluted to 1 mg/mL in PBS and 49 μL was used for analysis. […] The samples were analyzed by SDS-PAGE (30 μL) and imaged by in-gel fluorescence scanning.
Confirmatory studies were also performed on prostaglandin reductase 2 (PTGR2) because of its role in the reduction of the bioactive lipid, 15-keto-PGE2^[17]. […] The remaining fluorescent signal detected on PTGR2 Y100F mutant protein is likely due to probe labeling of additional tyrosine sites identified on wild-type protein.
To assess the PTGR2 inhibitory activity of AMC-0702 and AMC-0703, HEK293T cells expressing PTGR2 were pretreated with vehicle, HHS-0101 (25 μM), HHS-0701 (25 μM), AMC-0702 (25 μM-0.1 μM), or AMC-0703 (25 μM-0.1 μM) for 2 hours followed by HHS-475 probe labelling in live cells (25 μM, 2 hours). Cells were lysed and probe-modified PTGR2 in proteomes detected by copper-catalyzed azide-alkyne cycloaddition conjugation of rhodamine-azide, SDS-PAGE, and in-gel fluorescence scanning. Inhibitory activity of compounds is determined by reductions in fluorescent band intensity from HHS-475 probe labeling of proteins detected in proteomes. […]

[2] = target: T2, Q8N8N7 (prostaglandin reductase 2, PTGR2) (Homo sapiens, UniProt Q8N8N7); experiment: SILAC LC-MS ABPP; format: cell-based
T2 construct: endogenous in cells; host or cells: DM93 cells (SILAC), live-cell treatment
Description: Cells were grown to 90-95% confluence before being washed once with warm, sterile DPBS (1×, 5 mL), followed by addition of 10 mL of serum-free media (supplemented with 1% L-glutamine) containing either DMSO or SuTEx fragment (in DMSO) was added. Light cells were treated with DMSO vehicle while the heavy cells were treated with DMSO or SuTEx fragment (in DMSO) and incubated for 2 hrs. After 2 hrs, the cells were treated with SuTEx alkyne probe (HHS475, 10 μL of 1000× DMSO stock) and incubated for an additional 2 hrs. The media was aspirated and cells washed with cold PBS (5 mL) and harvested. Cells were spun at 500×g for 5 min at 4° C. followed by removal of supernatant. Pellets were resuspended in 1 mL of cold DPBS and spun at 1,400×g for 3 min at 4° C. followed by removal of supernatant. The cells were lysed in PBS by sonication and fractionated (100,000×g, 45 min, 4° C.).The light and heavy soluble fractions were diluted to 2.3 mg/mL in PBS and 432 μL were used for analysis (1 mg total protein). The probe-modified proteomes were conjugated to desthiobiotin-PEG3-azide (10 μl of 10 mM stock in DMSO; 200 μM final concentration) using TCEP (10 μl of fresh 50 mM stock in water, 1 mM final concentration), TBTA ligand (33 μl of a 1.7 mM 4:1 t-butanol/DMSO stock, 100 μM final concentration) and CuSO4 (10 μl of 50 mM stock, 1 mM final concentration). Samples were vortexed to mix and incubated for 1 hr at room temperature. The heavy and light proteomes were mixed 1:1 and the subsequent steps, including LC-MS/MS data analysis, were performed as previously described^[8a].
Coupling cell-based screens with chemical proteomics can facilitate the identification of target protein and binding sites that engage and are irreversibly modified by covalent ligands^[12]. In these assays, covalent ligands block SuTEx activity-based probe (ABP) labeling at protein sites, and the competition of probe labeling can be used to quantify potency and selectivity across the proteome^[10a]. To facilitate quantitative chemical proteomics, DM93 melanoma cells were cultured using stable isotopic labeling by amino acids in cell culture (SILAC)^[13]. Cells cultured in “light” media were treated with dimethyl sulfoxide (DMSO) vehicle while cells cultured in “heavy” media were treated with SuTEx ligand (25 μM, 2 hours, 37° C.). Next, cells were treated with HHS-475 probe (100 μM, 2 hours, 37° C.) followed by lysis and processing of proteomes for analysis. Probe-modified proteins from the soluble fraction were conjugated to a desthiobiotin-azide tag by copper-catalyzed azide-alkyne cycloaddition (CuAAC)^[14] followed by mixing of the light and heavy proteomes. The combined proteomes were digested with trypsin protease to produce probe-modified peptides, followed by enrichment and purification by avidin affinity chromatography. Probe-modified peptides were resolved, identified, and quantified by high-resolution liquid chromatography-tandem mass spectrometry (LC-MS/MS). Resultant data were analyzed as previously described^[8a, 10a]. Table 2, below, lists sites of modification targeted by sulfonyl-triazole compounds HHS-0101, HHS-0201, HHS-0301, HHS-0401, and HHS-0701. The format of the table is as follows: protein Uniprot accession number (see uniprot.org); tyrosine site (amino acid position) modified; treatment (sulfonyl-triazole compound identification number, followed by Y (where if multiple compounds modify the same site, the compounds are separated by vertical lines).
Confirmatory studies were also performed on prostaglandin reductase 2 (PTGR2) because of its role in the reduction of the bioactive lipid, 15-keto-PGE2^[17]. […] The chemical proteomic studies also identified additional tyrosine sites (e.g. Y265) competed by HHS-0701 albeit to a lesser degree (SR<5) compared with Y100. […]

T1 sequence (Q8N8N7 whole entry): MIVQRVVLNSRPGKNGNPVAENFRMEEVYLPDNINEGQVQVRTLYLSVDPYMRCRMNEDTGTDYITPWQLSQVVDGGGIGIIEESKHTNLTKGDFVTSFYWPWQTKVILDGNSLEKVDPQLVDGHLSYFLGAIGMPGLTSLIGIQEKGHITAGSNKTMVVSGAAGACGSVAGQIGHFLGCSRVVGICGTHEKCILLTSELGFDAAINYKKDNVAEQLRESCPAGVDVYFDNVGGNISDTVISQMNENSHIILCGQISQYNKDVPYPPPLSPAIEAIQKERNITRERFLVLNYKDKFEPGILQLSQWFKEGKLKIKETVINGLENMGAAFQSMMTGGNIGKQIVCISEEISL
T2 sequence (Q8N8N7 whole entry, one chain of several): as the sequence (Q8N8N7 whole entry) above

Structure (SMILES): O=C(NC1CC1)c1ccc(S(=O)(=O)n2cncn2)cc1 [HHS-0101, 4-((1H-1,2,4-triazol-1-yl)sulfonyl)-N-cyclopropylbenzamide]
- blockade of HHS-475 labeling of PTGR2 [1]: not
- SILAC ratio (SR), PTGR2 Y100 ([2]; 25 μM 2 h, live DM93 cells): 1.4

Structure (SMILES): O=C(NCc1ccccc1)c1ccc(S(=O)(=O)n2cncn2)cc1 [HHS-0401, 4-((1H-1,2,4-triazol-1-yl)sulfonyl)-N-benzylbenzamide]
- liganded tyrosine site 265 ([2]; 25 μM 2 h, live DM93 cells): HHS0401.Y (tyrosine sites that showed >80% reductions (SR >5) in probe labeling in cells treated with compounds (liganded sites))

Structure (SMILES): O=C(c1ccc(S(=O)(=O)n2cncn2)cc1)N1CCC(c2ccccc2)CC1 [HHS-0701, (4-((1H-1,2,4-triazol-1-yl)sulfonyl)phenyl)(4-phenylpiperidin-1-yl)methanone]
- blockade of HHS-475 labeling of PTGR2 [1]: could block HHS-475 labeling of PTGR2; also recorded: concentration-dependent blockade of probe labeling
- SILAC ratio (SR), PTGR2 Y100 ([2]; 25 μM 2 h, live DM93 cells): 11
- SILAC ratio (SR), PTGR2 Y265 ([2]; 25 μM 2 h, live DM93 cells): < 5
- liganded tyrosine site 100 ([2]; 25 μM 2 h, live DM93 cells): HHS0701.Y (tyrosine sites that showed >80% reductions (SR >5) in probe labeling in cells treated with compounds (liganded sites))
- PTGR2 Y100 liganded ([2]; ligand-treated DM93 cells): ~90%

Reference: patent US20240210412A1, “SULFONYL-TRIAZOLE COMPOUNDS USEFUL AS LIGANDS AND INHIBITORS OF PROSTAGLANDIN REDUCTASE 2” (University of Virginia Patent Foundation, priority 2021, published 2024)
